{"source": "paper PMC6934184", "about": "“Selective DNA-PKcs inhibition extends the therapeutic index of localized radiotherapy and chemotherapy” (The Journal of Clinical Investigation, 2019)", "target": "T1, SIK3 (Homo sapiens, UniProt Q9Y2K2)", "T1 construct": "purchased Thermo Fisher Scientific (Life Technologies) SelectScreen", "T1 sequence (Q9Y2K2 whole entry)": "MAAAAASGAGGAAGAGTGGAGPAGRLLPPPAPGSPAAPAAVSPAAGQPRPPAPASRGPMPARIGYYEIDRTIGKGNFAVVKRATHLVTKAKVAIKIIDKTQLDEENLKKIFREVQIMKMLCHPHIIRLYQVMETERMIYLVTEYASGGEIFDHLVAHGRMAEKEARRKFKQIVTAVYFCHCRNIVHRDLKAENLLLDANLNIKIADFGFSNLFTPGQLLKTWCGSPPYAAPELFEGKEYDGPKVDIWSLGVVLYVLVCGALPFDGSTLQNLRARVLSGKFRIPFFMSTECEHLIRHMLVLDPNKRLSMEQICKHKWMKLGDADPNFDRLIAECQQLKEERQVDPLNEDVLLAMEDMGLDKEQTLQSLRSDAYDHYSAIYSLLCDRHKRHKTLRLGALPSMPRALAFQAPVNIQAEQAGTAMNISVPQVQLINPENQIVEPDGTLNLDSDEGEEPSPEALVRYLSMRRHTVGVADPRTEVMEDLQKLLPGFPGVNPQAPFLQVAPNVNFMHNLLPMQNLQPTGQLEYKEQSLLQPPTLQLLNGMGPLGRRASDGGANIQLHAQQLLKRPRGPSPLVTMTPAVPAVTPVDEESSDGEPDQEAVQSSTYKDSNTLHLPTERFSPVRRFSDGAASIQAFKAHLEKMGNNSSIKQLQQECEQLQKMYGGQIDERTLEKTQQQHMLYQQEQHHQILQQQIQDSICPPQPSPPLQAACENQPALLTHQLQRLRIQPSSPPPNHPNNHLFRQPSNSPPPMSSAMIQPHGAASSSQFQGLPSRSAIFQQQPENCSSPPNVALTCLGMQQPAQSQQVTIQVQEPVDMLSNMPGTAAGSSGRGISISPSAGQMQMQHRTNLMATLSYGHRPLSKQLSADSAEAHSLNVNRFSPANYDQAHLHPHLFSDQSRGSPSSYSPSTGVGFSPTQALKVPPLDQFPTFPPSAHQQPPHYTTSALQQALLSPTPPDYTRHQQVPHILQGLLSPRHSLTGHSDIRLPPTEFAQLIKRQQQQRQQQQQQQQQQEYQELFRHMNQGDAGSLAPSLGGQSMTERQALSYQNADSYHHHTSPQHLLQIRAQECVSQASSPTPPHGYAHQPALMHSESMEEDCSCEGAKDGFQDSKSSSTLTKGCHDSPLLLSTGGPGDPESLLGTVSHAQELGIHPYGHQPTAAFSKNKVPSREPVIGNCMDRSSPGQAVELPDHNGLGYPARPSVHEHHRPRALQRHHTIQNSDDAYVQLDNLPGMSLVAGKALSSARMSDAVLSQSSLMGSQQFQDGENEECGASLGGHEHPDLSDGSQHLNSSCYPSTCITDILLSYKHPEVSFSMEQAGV", "assay": "SelectScreen LanthaScreen", "type": "binding", "settings": "1 µM", "procedure,_shortened": "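Percent values come from Thermo SelectScreen profiling of NU5455, combining activity and binding assays. CSF1R was run in Z'LYTE format at Km app ATP, and CAMK1 in Adapta format with ATP listed at 10.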", "data": [{"smiles": "CN(C(=O)CN1CCOCC1)c1ccc2sc3c(-c4cccc5c(=O)cc(N6CC7CCC(C6)O7)oc45)cccc3c2c1", "note": "[NU5455]", "values": [{"measurement": "% displacement", "value": 16.1, "unit": "%"}]}]}
